What was measured:
[1] = tested on: human carcinoma solid tumors; assay: nude mice inoculated with human carcinoma solid tumors, subcutaneous tumor size; type: in vivo; settings: after macrophage treatment; drugs used alone or in combination
Source text: 2) Nude mice inoculated with human carcinoma solid tumors are, initially treated with cytotoxic drugs (Adriamycin, Etretinate, Taxotere), used alone or in combination.

solid carcinoma = assay: C57B16 mice bearing solid carcinoma, apoptosis-inducing drug then monocyte derived cells; type: in vivo; settings: drug intraperitonealy, after 24 h 0.1 million monocyte derived cells in tumor periphery; observed only after combined treatment
Experimental: 7) C57B16 mice bearing solid carcinoma are injected intraperitonealy with a drug inducing apoptosis (1 mg mitomycin C or 0.1 mg sodium butyrate). After 24 h, mice are injected with 0.1 million monocyte derived cells in tumor periphery. […] In another protocol, carcinoma cells are treated in vitro with 0.01 mM sodium butyrate, and then submitted to phagocytosis by murine monocyte derived cells.

Row | Compound | antitumoral effect of second treatment with the same cytotoxic drugs (subcutaneous tumor size) [1] | tumor outcome after combined treatment (solid carcinoma)
1 | COc1cccc2c1C(=O)c1c(O)c3c(c(O)c1C2=O)C[C@@](O)(C(=O)CO)C[C@@H]3O[C@H]1C[C@H](N)[C@H](O)[C@H](C)O1 [Adriamycin] | further antitumoral effect | 
2 | CCOC(=O)/C=C(C)/C=C/C=C(C)/C=C/c1c(C)cc(OC)c(C)c1C [Etretinate] | further antitumoral effect | 
3 | CO[C@@]12[C@H](COC(N)=O)C3=C(C(=O)C(C)=C(N)C3=O)N1C[C@@H]1N[C@@H]12 [mitomycin C] |  | Tumor regression and protection against further tumor challenge
4 | CC(=O)O[C@@]12CO[C@@H]1C[C@H](O)[C@@]1(C)C(=O)[C@H](O)C3=C(C)[C@@H](OC(=O)[C@H](O)[C@@H](NC(=O)OC(C)(C)C)c4ccccc4)C[C@@](O)([C@@H](OC(=O)c4ccccc4)[C@H]21)C3(C)C [Taxotere] | further antitumoral effect | 
5 | CCCC(=O)[O-].[Na+] [sodium butyrate] |  | Tumor regression and protection against further tumor challenge
